# Source: US20030022158A1, “Peptides from the TT virus sequence and monospecific antibodies binding to the TT virus” (priority 1999, published 2003)
# Test system: human IgG antibodies in human serum samples
# Assay: EIA of human antibody reactivities to overlapping synthetic peptides of TTV ORF1 and ORF2 (Tables 2 and 3)
# Assay type: binding
# Conditions: human serum sample 1, negative for TTV DNA by PCR; serum diluted 1:100; OD over 0.500 considered positive
# From the text: Overlapping peptides (18 amino acids in length containing an 8 amino acid overlap) corresponding to regions of the ORFI and ORF2 of TTV (TABLE 1; Genebank accession no AB008394) were produced by a multiple peptide synthesizer (Syro, Syntex, Germany) using standard Fmoc chemistry (Sallberg et al., Immunology Letters, 30:59 68 (1991), herein expressly incorporated by reference in its entirety).
# (§1) The EIAs used to identify which peptides interacted with human sera followed protocols known in the art. (See Zhang et al., J Gen Virol, 78:2735-2746 (1997), herein expressly incorporated by reference in its entirety). Briefly, microplates (Nunc, Denmark) were coated for 48 hours with synthetic peptides at a concentration of 10 μg/ml in 0.05M sodium carbonate buffer pH 9.6. After blocking for 2 hours at room temperature with phosphate buffered saline containing 1% bovine serum albumin, 2% goat serum and 0.05% Tween 20 (dilution buffer) the plates were incubated with human sera diluted 1:100 in dilution buffer. Bound human IgG was detected by incubation with anti-human IgG antibodies conjugated to alkaline phosphatase (Sigma Chemicals, St. Louis, Mo.). The plates were developed by the addition of […] (Sigma) and the optical densities were determined at 405 nm.
row,Substance,optical density (OD) at 405 nm [OD]
1,20: overlapping synthetic peptide of TTV ORF1 (TATTTTYAYPGTNRPP) [compound 20],0.07

# Same assay, conditions: human serum sample 2, negative for TTV DNA by PCR; serum diluted 1:100; OD over 0.500 considered positive
row,Substance,optical density (OD) at 405 nm [OD]
1,20: overlapping synthetic peptide of TTV ORF1 (TATTTTYAYPGTNRPP) [compound 20],0.06

# Same assay, conditions: human serum sample 3, negative for TTV DNA by PCR; serum diluted 1:100; OD over 0.500 considered positive
row,Substance,optical density (OD) at 405 nm [OD]
1,20: overlapping synthetic peptide of TTV ORF1 (TATTTTYAYPGTNRPP) [compound 20],0.06

# Same assay, conditions: human serum sample 4, negative for TTV DNA by PCR; serum diluted 1:100; OD over 0.500 considered positive
row,Substance,optical density (OD) at 405 nm [OD]
1,20: overlapping synthetic peptide of TTV ORF1 (TATTTTYAYPGTNRPP) [compound 20],0.07

# Same assay, conditions: human serum sample 5, negative for TTV DNA by PCR; serum diluted 1:100; OD over 0.500 considered positive
row,Substance,optical density (OD) at 405 nm [OD]
1,20: overlapping synthetic peptide of TTV ORF1 (TATTTTYAYPGTNRPP) [compound 20],0.06

# Same assay, conditions: human serum sample 6, negative for TTV DNA by PCR; serum diluted 1:100; OD over 0.500 considered positive
row,Substance,optical density (OD) at 405 nm [OD]
1,20: overlapping synthetic peptide of TTV ORF1 (TATTTTYAYPGTNRPP) [compound 20],0.08

# Same assay, conditions: human serum sample 7, negative for TTV DNA by PCR; serum diluted 1:100; OD over 0.500 considered positive
row,Substance,optical density (OD) at 405 nm [OD]
1,20: overlapping synthetic peptide of TTV ORF1 (TATTTTYAYPGTNRPP) [compound 20],0.08

# Same assay, conditions: human serum sample 9, positive for TTV DNA by PCR; serum diluted 1:100; OD over 0.500 considered positive
row,Substance,optical density (OD) at 405 nm [OD]
1,20: overlapping synthetic peptide of TTV ORF1 (TATTTTYAYPGTNRPP) [compound 20],0.08

# Same assay, conditions: human serum sample 11, negative for TTV DNA by PCR; serum diluted 1:100; OD over 0.500 considered positive
row,Substance,optical density (OD) at 405 nm [OD]
1,20: overlapping synthetic peptide of TTV ORF1 (TATTTTYAYPGTNRPP) [compound 20],0.11

# Same assay, conditions: human serum sample 18, positive for TTV DNA by PCR; serum diluted 1:100; OD over 0.500 considered positive
row,Substance,optical density (OD) at 405 nm [OD]
1,20: overlapping synthetic peptide of TTV ORF1 (TATTTTYAYPGTNRPP) [compound 20],0.07

# Same assay, conditions: human serum sample 36, positive for TTV DNA by PCR; serum diluted 1:100; OD over 0.500 considered positive
row,Substance,optical density (OD) at 405 nm [OD]
1,20: overlapping synthetic peptide of TTV ORF1 (TATTTTYAYPGTNRPP) [compound 20],0.07

# Same assay, conditions: human serum sample 48, positive for TTV DNA by PCR; serum diluted 1:100; OD over 0.500 considered positive
row,Substance,optical density (OD) at 405 nm [OD]
1,20: overlapping synthetic peptide of TTV ORF1 (TATTTTYAYPGTNRPP) [compound 20],0.09

# Same assay, conditions: human serum sample 98, positive for TTV DNA by PCR; serum diluted 1:100; OD over 0.500 considered positive
row,Substance,optical density (OD) at 405 nm [OD]
1,20: overlapping synthetic peptide of TTV ORF1 (TATTTTYAYPGTNRPP) [compound 20],0.04

# Same assay, conditions: human serum sample 110, positive for TTV DNA by PCR; serum diluted 1:100; OD over 0.500 considered positive
row,Substance,optical density (OD) at 405 nm [OD]
1,20: overlapping synthetic peptide of TTV ORF1 (TATTTTYAYPGTNRPP) [compound 20],0.06

# Same assay, conditions: human serum sample 155, positive for TTV DNA by PCR; serum diluted 1:100; OD over 0.500 considered positive
row,Substance,optical density (OD) at 405 nm [OD]
1,20: overlapping synthetic peptide of TTV ORF1 (TATTTTYAYPGTNRPP) [compound 20],0.09

# Same assay, conditions: human serum sample 157, positive for TTV DNA by PCR; serum diluted 1:100; OD over 0.500 considered positive
row,Substance,optical density (OD) at 405 nm [OD]
1,20: overlapping synthetic peptide of TTV ORF1 (TATTTTYAYPGTNRPP) [compound 20],0.10

# Same assay, conditions: serum sample 1, negative for TTV DNA by PCR; serum 1:100; peptide coated 10 μg/ml; OD over 0.500 positive
row,Substance,"optical density (OD) at 405 nm, EIA reactivity of human serum sample 1 [OD]"
1,20: overlapping synthetic peptide of TTV ORF1 (TATTTTYAYPGTNRPP) [compound 20],0.09

# Same assay, conditions: serum sample 2, negative for TTV DNA by PCR; serum 1:100; peptide coated 10 μg/ml; OD over 0.500 positive
row,Substance,"optical density (OD) at 405 nm, EIA reactivity of human serum sample 2 [OD]"
1,20: overlapping synthetic peptide of TTV ORF1 (TATTTTYAYPGTNRPP) [compound 20],0.10

# Same assay, conditions: serum sample 3, negative for TTV DNA by PCR; serum 1:100; peptide coated 10 μg/ml; OD over 0.500 positive
row,Substance,"optical density (OD) at 405 nm, EIA reactivity of human serum sample 3 [OD]"
1,20: overlapping synthetic peptide of TTV ORF1 (TATTTTYAYPGTNRPP) [compound 20],0.09

# Same assay, conditions: serum sample 4, negative for TTV DNA by PCR; serum 1:100; peptide coated 10 μg/ml; OD over 0.500 positive
row,Substance,"optical density (OD) at 405 nm, EIA reactivity of human serum sample 4 [OD]"
1,20: overlapping synthetic peptide of TTV ORF1 (TATTTTYAYPGTNRPP) [compound 20],0.08

# Same assay, conditions: serum sample 5, negative for TTV DNA by PCR; serum 1:100; peptide coated 10 μg/ml; OD over 0.500 positive
row,Substance,"optical density (OD) at 405 nm, EIA reactivity of human serum sample 5 [OD]"
1,20: overlapping synthetic peptide of TTV ORF1 (TATTTTYAYPGTNRPP) [compound 20],0.07

# Same assay, conditions: serum sample 6, negative for TTV DNA by PCR; serum 1:100; peptide coated 10 μg/ml; OD over 0.500 positive
row,Substance,"optical density (OD) at 405 nm, EIA reactivity of human serum sample 6 [OD]"
1,20: overlapping synthetic peptide of TTV ORF1 (TATTTTYAYPGTNRPP) [compound 20],0.10

# Same assay, conditions: serum sample 7, negative for TTV DNA by PCR; serum 1:100; peptide coated 10 μg/ml; OD over 0.500 positive
row,Substance,"optical density (OD) at 405 nm, EIA reactivity of human serum sample 7 [OD]"
1,20: overlapping synthetic peptide of TTV ORF1 (TATTTTYAYPGTNRPP) [compound 20],0.07

# Same assay, conditions: serum sample 9, positive for TTV DNA by PCR; serum 1:100; peptide coated 10 μg/ml; OD over 0.500 positive
row,Substance,"optical density (OD) at 405 nm, EIA reactivity of human serum sample 9 [OD]"
1,20: overlapping synthetic peptide of TTV ORF1 (TATTTTYAYPGTNRPP) [compound 20],0.10

# Same assay, conditions: serum sample 11, negative for TTV DNA by PCR; serum 1:100; peptide coated 10 μg/ml; OD over 0.500 positive
row,Substance,"optical density (OD) at 405 nm, EIA reactivity of human serum sample 11 [OD]"
1,20: overlapping synthetic peptide of TTV ORF1 (TATTTTYAYPGTNRPP) [compound 20],0.09

# Same assay, conditions: serum sample 18, positive for TTV DNA by PCR; serum 1:100; peptide coated 10 μg/ml; OD over 0.500 positive
row,Substance,"optical density (OD) at 405 nm, EIA reactivity of human serum sample 18 [OD]"
1,20: overlapping synthetic peptide of TTV ORF1 (TATTTTYAYPGTNRPP) [compound 20],0.10

# Same assay, conditions: serum sample 36, positive for TTV DNA by PCR; serum 1:100; peptide coated 10 μg/ml; OD over 0.500 positive
row,Substance,"optical density (OD) at 405 nm, EIA reactivity of human serum sample 36 [OD]"
1,20: overlapping synthetic peptide of TTV ORF1 (TATTTTYAYPGTNRPP) [compound 20],0.08

# Same assay, conditions: serum sample 48, positive for TTV DNA by PCR; serum 1:100; peptide coated 10 μg/ml; OD over 0.500 positive
row,Substance,"optical density (OD) at 405 nm, EIA reactivity of human serum sample 48 [OD]"
1,20: overlapping synthetic peptide of TTV ORF1 (TATTTTYAYPGTNRPP) [compound 20],0.08

# Same assay, conditions: serum sample 98, positive for TTV DNA by PCR; serum 1:100; peptide coated 10 μg/ml; OD over 0.500 positive
row,Substance,"optical density (OD) at 405 nm, EIA reactivity of human serum sample 98 [OD]"
1,20: overlapping synthetic peptide of TTV ORF1 (TATTTTYAYPGTNRPP) [compound 20],0.08

# Same assay, conditions: serum sample 110, positive for TTV DNA by PCR; serum 1:100; peptide coated 10 μg/ml; OD over 0.500 positive
row,Substance,"optical density (OD) at 405 nm, EIA reactivity of human serum sample 110 [OD]"
1,20: overlapping synthetic peptide of TTV ORF1 (TATTTTYAYPGTNRPP) [compound 20],0.10

# Same assay, conditions: serum sample 155, positive for TTV DNA by PCR; serum 1:100; peptide coated 10 μg/ml; OD over 0.500 positive
row,Substance,"optical density (OD) at 405 nm, EIA reactivity of human serum sample 155 [OD]"
1,20: overlapping synthetic peptide of TTV ORF1 (TATTTTYAYPGTNRPP) [compound 20],0.14

# Same assay, conditions: serum sample 157, positive for TTV DNA by PCR; serum 1:100; peptide coated 10 μg/ml; OD over 0.500 positive
row,Substance,"optical density (OD) at 405 nm, EIA reactivity of human serum sample 157 [OD]"
1,20: overlapping synthetic peptide of TTV ORF1 (TATTTTYAYPGTNRPP) [compound 20],0.16

# Test system: human antibodies in human serum samples
# Assay: EIA reactivities of three human serum samples with deletion and alanine substitution analogues of SEQ ID NO: 1 (Table 6)
# Assay type: binding
# Conditions: human serum sample P4; positive = more than 50% of the reactivity of the original peptide
# Procedure: as §1
# The reactivity to the TATTTTYAYPGTNRPPV (SEQ ID NO: 1) peptide was further characterized by mapping the reactivity of deletion and substitution peptide analogues.
row,Substance,"OD at 405 nm, reactivity of human serum sample P4 [OD]"
1,20: overlapping synthetic peptide of TTV ORF1 (TATTTTYAYPGTNRPP) [compound 20],0.096

# Same assay, conditions: human serum sample P7; positive = more than 50% of the reactivity of the original peptide
row,Substance,"OD at 405 nm, reactivity of human serum sample P7 [OD]"
1,20: overlapping synthetic peptide of TTV ORF1 (TATTTTYAYPGTNRPP) [compound 20],0.144

# Same assay, conditions: human serum sample P36; positive = more than 50% of the reactivity of the original peptide
row,Substance,"OD at 405 nm, reactivity of human serum sample P36 [OD]"
1,20: overlapping synthetic peptide of TTV ORF1 (TATTTTYAYPGTNRPP) [compound 20],0.086
